According to ChEMBL document CHEMBL4382249, “1-Arylsulfonyl indoline-benzamides as a new antitubulin agents, with inhibition of histone deacetylase” (Eur J Med Chem, 2019):
Activity calls are given as the source filed them. No cut-off for these calls is given here.

Legend:
[1] = tested on: KB; assay: Growth inhibition of human KB cells after 48 hrs by SRB assay; format: functional, cell-based
[2] = tested on: MKN-45; assay: Growth inhibition of human MKN45 cells after 48 hrs by SRB assay; format: functional, cell-based; details: MKN-45, 48 h
[3] = Growth inhibition of human KB-7d cells after 48 hrs by SRB assay; format: functional; details: KB7D
[4] = target: T1, Protein deacetylase HDAC6 (Homo sapiens) (UniProt Q9UBN7); assay: Inhibition of human HDAC6 in human A549 cells assessed as increase in acetylated alpha-tubulin level at 0.6 to […] after 6 hrs by Western blot analysis; format: cell-based
T1 sequence (whole entry): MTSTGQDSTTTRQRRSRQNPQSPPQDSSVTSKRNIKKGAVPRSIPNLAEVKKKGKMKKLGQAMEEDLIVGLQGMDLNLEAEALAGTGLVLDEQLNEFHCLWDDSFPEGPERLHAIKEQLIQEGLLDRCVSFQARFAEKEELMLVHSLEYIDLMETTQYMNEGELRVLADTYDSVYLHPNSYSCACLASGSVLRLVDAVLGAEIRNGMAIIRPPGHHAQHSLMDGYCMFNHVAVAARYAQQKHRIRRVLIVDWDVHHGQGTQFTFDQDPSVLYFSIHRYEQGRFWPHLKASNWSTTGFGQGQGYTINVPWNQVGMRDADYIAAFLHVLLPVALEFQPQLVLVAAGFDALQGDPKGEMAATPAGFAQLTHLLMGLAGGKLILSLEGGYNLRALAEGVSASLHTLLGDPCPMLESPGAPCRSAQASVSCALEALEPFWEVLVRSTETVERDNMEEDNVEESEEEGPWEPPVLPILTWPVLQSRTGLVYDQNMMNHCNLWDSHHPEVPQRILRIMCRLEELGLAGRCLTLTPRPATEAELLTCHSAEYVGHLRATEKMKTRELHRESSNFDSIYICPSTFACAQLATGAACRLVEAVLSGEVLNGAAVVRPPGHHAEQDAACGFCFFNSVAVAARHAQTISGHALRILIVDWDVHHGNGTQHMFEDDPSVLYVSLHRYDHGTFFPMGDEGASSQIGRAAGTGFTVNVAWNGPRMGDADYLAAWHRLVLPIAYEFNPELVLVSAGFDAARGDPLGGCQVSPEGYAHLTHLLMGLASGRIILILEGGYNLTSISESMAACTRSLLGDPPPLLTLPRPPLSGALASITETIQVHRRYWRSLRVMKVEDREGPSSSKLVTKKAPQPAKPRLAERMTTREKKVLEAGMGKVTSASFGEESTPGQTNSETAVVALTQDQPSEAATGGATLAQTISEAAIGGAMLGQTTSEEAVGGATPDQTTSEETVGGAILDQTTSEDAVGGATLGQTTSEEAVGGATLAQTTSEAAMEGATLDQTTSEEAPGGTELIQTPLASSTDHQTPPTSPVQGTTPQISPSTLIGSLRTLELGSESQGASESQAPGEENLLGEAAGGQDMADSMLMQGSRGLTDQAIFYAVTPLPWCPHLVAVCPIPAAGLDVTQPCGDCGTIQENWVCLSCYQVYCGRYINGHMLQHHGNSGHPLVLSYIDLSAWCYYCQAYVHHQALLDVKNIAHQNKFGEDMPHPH

[5] = target: Tubulin (Bos taurus, UniProt Q6B856+Q862L2+Q862F3)
[6] = target: Histone deacetylase 1 (Homo sapiens, UniProt Q13547); assay: Inhibition of human HDAC1 using RHKKAc as substrate by fluorescence assay
Sequence of Histone deacetylase 1 (Q13547 whole entry): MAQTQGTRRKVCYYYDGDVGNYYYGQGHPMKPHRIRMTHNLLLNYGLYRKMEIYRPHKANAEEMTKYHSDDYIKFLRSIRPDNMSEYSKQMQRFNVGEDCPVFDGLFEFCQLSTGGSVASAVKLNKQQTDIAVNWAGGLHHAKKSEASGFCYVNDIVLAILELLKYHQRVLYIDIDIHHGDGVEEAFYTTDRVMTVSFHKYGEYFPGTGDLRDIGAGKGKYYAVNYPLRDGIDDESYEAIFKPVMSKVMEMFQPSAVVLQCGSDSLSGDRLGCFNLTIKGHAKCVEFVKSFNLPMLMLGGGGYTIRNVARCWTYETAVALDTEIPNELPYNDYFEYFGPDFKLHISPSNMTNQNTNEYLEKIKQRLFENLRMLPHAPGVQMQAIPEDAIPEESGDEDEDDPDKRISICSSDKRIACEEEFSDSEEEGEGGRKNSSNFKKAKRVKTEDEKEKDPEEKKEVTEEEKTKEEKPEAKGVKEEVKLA

[7] = target: T2, Polyamine deacetylase HDAC10 (Homo sapiens, UniProt Q969S8); assay: Inhibition of human HDAC10 using RHKKAc as substrate by fluorescence assay; details: read-out: IC50
T2 sequence (Q969S8 whole entry): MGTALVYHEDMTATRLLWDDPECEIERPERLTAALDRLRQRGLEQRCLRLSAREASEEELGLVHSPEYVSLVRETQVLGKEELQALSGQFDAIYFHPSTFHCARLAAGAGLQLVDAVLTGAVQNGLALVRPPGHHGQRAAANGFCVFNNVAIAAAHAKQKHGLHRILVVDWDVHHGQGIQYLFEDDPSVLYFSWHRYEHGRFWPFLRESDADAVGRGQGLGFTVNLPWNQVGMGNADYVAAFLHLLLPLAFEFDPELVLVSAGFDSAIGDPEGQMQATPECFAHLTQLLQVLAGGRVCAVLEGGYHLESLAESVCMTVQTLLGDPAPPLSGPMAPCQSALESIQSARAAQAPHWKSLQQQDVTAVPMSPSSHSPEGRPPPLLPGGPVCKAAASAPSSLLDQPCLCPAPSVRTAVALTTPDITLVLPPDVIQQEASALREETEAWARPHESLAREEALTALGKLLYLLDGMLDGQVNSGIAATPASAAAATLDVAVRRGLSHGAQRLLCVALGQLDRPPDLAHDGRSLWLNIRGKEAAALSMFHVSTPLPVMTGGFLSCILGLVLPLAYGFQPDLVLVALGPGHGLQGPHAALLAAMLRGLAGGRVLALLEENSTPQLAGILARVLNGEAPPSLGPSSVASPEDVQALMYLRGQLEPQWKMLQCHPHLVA

[8] = Toxicity in nude Balb/c mouse xenografted with human A549 cells assessed as change in body weight at 50 mg/kg, ip daily measured up to 18 days; format: organism-based; details: in vivo, 432 h
[9] = tested on: BJAB; assay: Antitumor activity against human BJAB cells xenografted in NOD/SCID mouse assessed as tumor growth inhibition at 50 mg/kg, iv daily for 5 days/week measured on day 25 post first dose; format: functional, organism-based
[10] = target: Tubulin (Bos taurus) (UniProt Q6B856+Q862L2+Q862F3); details: at 5 µM
[11] = tested on: BJAB; assay: Growth inhibition of human BJAB cells after 48 hrs by MTT assay
[12] = tested on: BJAB; assay: Growth inhibition of human BJAB cells assessed as cell viability at 40 nM after 48 hrs by MTT assay (reference value: 100%)

- IC50 [1]: 49 nM
- IC50 [2]: 63 nM
- inhibition [4]: Active
- IC50 [5]: 1100 nM
- IC50 [6]: 221 nM
- IC50 [7]: 10000 nM
- inhibition [10]: 85.2%
Structure (SMILES): COc1ccc(S(=O)(=O)N2CCc3cccc(NCc4ccc(C(=O)Nc5ccccc5N)cc4)c32)cc1
- IC50 [3]: 46.6 nM
- Activity [8]: Non-Toxic
- TGI [9]: Active
- IC50 [11]: 40 nM
- viability at 0.04 µM [12]: 50%
